# How the values were obtained:
# CaSR de rat = target: T1, CaSR de rat (Rattus norvegicus, UniProt P48442); experiment: Accumulation of tritiated inositol phosphates ([3H]IP) in transfected CHO(CaSR) cells; assay type: cell-based; details: compound 10 µM; for Accumulation d'(^3H)-IP % du taux basal. CHO (CaSR) / activity at 10 µM: basal level in presence of 2 mM Ca^2+ = 100 %; for activity at 10 µM: read-out: Accumulation d'(^3H)-IP % du taux basal. CHO (CaSR); for activation at 10 µM: read-out: Accumulation d'(^3H)-IP % de la réponse 10mM Ca^2+ ± E.S.
# T1 construct: expressed in transfected cells; host or cells: CHO (Chinese hamster ovary) cells, line CHO(CaSR)
# T1 sequence (P48442 20-1079): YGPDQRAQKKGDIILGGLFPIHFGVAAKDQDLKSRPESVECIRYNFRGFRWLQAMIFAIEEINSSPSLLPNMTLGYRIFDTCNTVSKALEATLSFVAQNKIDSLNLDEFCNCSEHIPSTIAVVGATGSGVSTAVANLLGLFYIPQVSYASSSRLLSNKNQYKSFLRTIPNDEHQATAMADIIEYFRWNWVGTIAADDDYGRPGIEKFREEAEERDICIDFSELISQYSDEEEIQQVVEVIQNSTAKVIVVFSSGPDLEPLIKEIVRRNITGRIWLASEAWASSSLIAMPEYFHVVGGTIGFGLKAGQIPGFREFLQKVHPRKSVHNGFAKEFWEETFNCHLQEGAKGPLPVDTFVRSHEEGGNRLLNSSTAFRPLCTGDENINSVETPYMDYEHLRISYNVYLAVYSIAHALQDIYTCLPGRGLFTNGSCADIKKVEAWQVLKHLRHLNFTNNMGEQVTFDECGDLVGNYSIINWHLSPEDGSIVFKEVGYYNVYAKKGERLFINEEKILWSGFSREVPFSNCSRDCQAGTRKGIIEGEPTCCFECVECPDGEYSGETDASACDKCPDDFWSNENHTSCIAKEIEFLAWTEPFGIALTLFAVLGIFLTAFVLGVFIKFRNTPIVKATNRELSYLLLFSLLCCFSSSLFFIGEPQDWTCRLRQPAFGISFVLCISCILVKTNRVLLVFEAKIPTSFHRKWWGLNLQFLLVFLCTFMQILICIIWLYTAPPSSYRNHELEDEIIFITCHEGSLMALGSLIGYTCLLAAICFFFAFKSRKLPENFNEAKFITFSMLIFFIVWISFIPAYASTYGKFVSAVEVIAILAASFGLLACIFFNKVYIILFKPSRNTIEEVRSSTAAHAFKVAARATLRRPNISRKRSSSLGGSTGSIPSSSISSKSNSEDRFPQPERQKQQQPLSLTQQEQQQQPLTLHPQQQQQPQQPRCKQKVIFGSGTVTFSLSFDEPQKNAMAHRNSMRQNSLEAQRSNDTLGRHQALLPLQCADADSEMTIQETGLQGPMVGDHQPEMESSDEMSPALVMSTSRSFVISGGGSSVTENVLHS
# Excerpt: L'ADN complémentaire codant pour le CaSR de rat a été isolé à partir d'une banque ADNc de striatum de rat (Ruat et al, Proc. Natl. Acad. Sci., 1995). Ce récepteur est identique au niveau de sa séquence en acides aminés à celui exprimé dans les autres tissus. Des cellules ovariennes de hamster chinois (CHO) transfectées exprimant le CaSR de rat (CHO(CaSR)) ont été caractérisées et les signaux chimiques (seconds messagers) induits par l'activation de ce récepteur ont été analysés. Ainsi, un test biochimique permettant de mesurer l'accumulation d'inositols phosphates tritiés [^3H]IP en réponse à l'activation du récepteur a été mis au point (Ruat et al, J. Biol. Chem., 1996; Ferry et al, Biochem. Biophys. Res. Commun., 1997).
# L'activité calcimimétique des composés a été estimée en mesurant l'accumulation d'inositols phosphates tritiés induite par 10 µM de chacun des composés en présence de 2 mM de Ca^2+ dans les cellules CHO(CaSR) (Ferry et al, Biochem Biophys Res Commun, 1997).
# Cette activation a été comparée à celle induite par le composé NPS-R- 568, un calcimimétique de référence et utilisé à une concentration de 10 µM (Tableau 1) (Ferry et al, Biochem Biophys Res Commun, 1997; Nemeth et al, Proc Natl Acad Sci USA, 1997).
# Dans le tableau 1, l'activité calcimimétique des composés PHD est comparée à celle d'un composé de référence, le NPS-R-568 utilisé à la même concentration et dans les mêmes conditions expérimentales. Cette activité est exprimée en pourcentage de l'activité de 10 mM de Ca^2+. Les moyennes ± erreurs standards de 2 à 5 manipulations indépendantes sont indiquées. Les expériences ont été réalisées en présence de 2 mM de Ca^2+.
# (§1) L'accumulation d'inositols phosphates tritiés est exprimée en pourcentage du taux de base observé en présence de 2 mM Ca^2+ (100 %) dans les cellules CHO(WT*) ou CHO(CaSR).
# cellules CHO(WT*) = experiment: Specificity control: [3H]IP accumulation in CHO(WT*) control cells transfected with the plasmid alone, not expressing CaSR; assay type: cell-based, hamster chinois; details: compound 10 µM, basal level in presence of 2 mM Ca^2+ = 100 %; for activity at 10 µM: read-out: Accumulation d'(^3H)-IP % du taux basal. CHO (WT*)
# Procedure: Les molécules PHD, utilisées à une concentration de 10 µM ne conduisent pas ou peu à l'accumulation d'[^3H]IP dans des cellules CHO(WT*) témoins ce qui suggère leur spécificité d'action vis-à-vis du CaSR (Tableau 2). Les cellules CHO(WT*) ont été tranfectées avec le plasmide seul et n'expriment pas le CaSR.
# as §1
# [1] = in presence of 2 mM Ca^2+, mean ± standard error of 2 to 5 independent experiments
activation at 10 µM (CaSR de rat; [1]) [%],Compound,further results
30 ± 2,COc1ccc(S(=O)(=O)NC(C)CNC(C)c2cccc3ccccc23)cc1 (stereo not drawn) [PHD 280],
27 ± 11,CC(NCC(Cc1ccccc1)NS(=O)(=O)c1ccc([N+](=O)[O-])cc1)c1cccc2ccccc12 (stereo not drawn) [PHD 124],
31 ± 3,Cc1ccc(S(=O)(=O)NC(CNC(C)c2cccc3ccccc23)c2ccccc2)cc1 (stereo not drawn) [PHD 176 B],
39 ± 1,COc1ccc(S(=O)(=O)NC(CCc2ccccc2)CNC(C)c2cccc3ccccc23)cc1 (stereo not drawn) [PHD 218],
47 ± 2,COc1ccc(S(=O)(=O)NC(CNC(C)c2cccc3ccccc23)Cc2ccc3c(c2)OCO3)cc1 (stereo not drawn) [PHD 271],
60 ± 4,COc1ccc(S(=O)(=O)NC(CNC(C)c2cccc3ccccc23)Cc2ccccc2Cl)cc1 (stereo not drawn) [PHD 242],
65 ± 2,COc1ccc(S(=O)(=O)NC(CNC(C)c2cccc3ccccc23)Cc2ccccc2OC)cc1 (stereo not drawn) [PHD 230],
68 ± 9,Cc1ccc(S(=O)(=O)NC(CNC(C)c2cccc3ccccc23)Cc2ccccc2)cc1 (stereo not drawn) [PHD 181],
80 ± 12,COc1ccc(S(=O)(=O)NC(CNC(C)c2cccc3ccccc23)Cc2ccccc2)cc1 (stereo not drawn) [PHD 206],
45 ± 1,COc1ccc(CC(CNC(C)c2cccc3ccccc23)NS(=O)(=O)c2ccc(OC)cc2)cc1 (stereo not drawn) [PHD 267],
29 ± 2,CC(NCC(Cc1ccccc1)NS(=O)(=O)c1ccc(C(F)(F)F)cc1)c1cccc2ccccc12 (stereo not drawn) [PHD 304],
37 ± 5,COc1ccc(S(=O)(=O)NC(CNC(C)c2cccc3ccccc23)Cc2cccc(C)c2OC)cc1 (stereo not drawn) [PHD 235],
34 ± 2,CC(NCC(Cc1ccccc1)NS(=O)(=O)c1ccc2ccccc2c1)c1cccc2ccccc12 (stereo not drawn) [PHD 318],
97 ± 13,"COc1ccc(S(=O)(=O)NC(CNC(C)c2cccc3ccccc23)Cc2ccccc2)cc1OC (stereo not drawn) [PHD 321, N^2(3,4-diméthoxybenzènesulfonyl)-N^1[1-(1-naphtyl)éthyl]-3-phénylpropane-1,2-diamine]",Accumulation d'(^3H)-IP % du taux basal. CHO (CaSR) (CaSR de rat): une forte accumulation; activity at 10 µM (CaSR de rat): 446 ± 22%; Accumulation d'(^3H)-IP % du taux basal. CHO (WT*) (cellules CHO(WT*)): peu ou pas d'accumulation; activity at 10 µM (cellules CHO(WT*)): 124 ± 4%
38 ± 20,CC(NCC(Cc1ccccc1)NS(=O)(=O)c1ccc(Cl)cc1)c1cccc2ccccc12 (stereo not drawn) [PHD 203],

# The remaining lines, values behind:
Compound,activation at 10 µM (CaSR de rat; [1]) [%],further results
CC(NCC(Cc1ccccc1)NS(=O)(=O)c1ccccc1Cl)c1cccc2ccccc12 (stereo not drawn) [PHD 301],79 ± 10,Accumulation d'(^3H)-IP % du taux basal. CHO (CaSR) (CaSR de rat): une forte accumulation; activity at 10 µM (CaSR de rat): 304 ± 18%; Accumulation d'(^3H)-IP % du taux basal. CHO (WT*) (cellules CHO(WT*)): peu ou pas d'accumulation; activity at 10 µM (cellules CHO(WT*)): 119 ± 6%
CC(NCC(Cc1ccccc1)NCc1ccc(F)cc1)c1cccc2ccccc12 (stereo not drawn) [PHD 320],95 ± 4,
CC(NCC(Cc1ccccc1)NS(=O)(=O)c1ccc([N+](=O)[O-])cc1)c1ccccc1 (stereo not drawn) [PHD 87],8 ± 4,
"CC(NCC(Cc1ccccc1)NCc1ccccc1Cl)c1cccc2ccccc12 (stereo not drawn) [PHD 307, N^2-(2-Chlorobenzyl)-N^1-[1-(1-naphtyl)éthyl]-3-phénylpropane-1,2-diamine]",98 ± 8,Accumulation d'(^3H)-IP % du taux basal. CHO (CaSR) (CaSR de rat): une forte accumulation; activity at 10 µM (CaSR de rat): 393 ± 28%; Accumulation d'(^3H)-IP % du taux basal. CHO (WT*) (cellules CHO(WT*)): peu ou pas d'accumulation; activity at 10 µM (cellules CHO(WT*)): 134 ± 11%
"C[C@@H](NCC(Cc1ccccc1)NS(=O)(=O)c1ccc([N+](=O)[O-])cc1)c1ccccc1 (single isomer, unassigned) [PHD 127 A]",12 ± 5,
CC(NCC(Cc1ccccc1)NCc1ccccc1)c1cccc2ccccc12 (stereo not drawn) [PHD 285],80 ± 8,
Cc1ccc(S(=O)(=O)NC(CNC(C)c2ccccc2)Cc2ccccc2)cc1 (stereo not drawn) [PHD 121],23 ± 15,
COc1ccc(S(=O)(=O)NC(CN[C@H](C)c2cccc(OC)c2)Cc2ccccc2)cc1 (stereo partly drawn) [PHD 217],34 ± 5,
CC(NCC(N)Cc1ccccc1)c1ccccc1 (stereo not drawn) [PHD 90],3 ± 2,
CC(NCC(Cc1ccccc1)NS(=O)(=O)c1ccccc1)c1cccc2ccccc12 (stereo not drawn) [PHD 202],78 ± 10,
COc1ccc(S(=O)(=O)NCCNC(C)c2cccc3ccccc23)cc1 (stereo not drawn) [PHD 288],45 ± 3,
CC(NCC(Cc1ccccc1)NS(=O)(=O)c1cccs1)c1cccc2ccccc12 (stereo not drawn) [PHD 316],78 ± 1,
CC(NCC(Cc1ccccc1)NS(=O)(=O)c1cccc(Cl)c1)c1cccc2ccccc12 (stereo not drawn) [PHD 308],83 ± 4,Accumulation d'(^3H)-IP % du taux basal. CHO (CaSR) (CaSR de rat): une forte accumulation; activity at 10 µM (CaSR de rat): 314 ± 13%; Accumulation d'(^3H)-IP % du taux basal. CHO (WT*) (cellules CHO(WT*)): peu ou pas d'accumulation; activity at 10 µM (cellules CHO(WT*)): 124 ± 9%
Cc1ccc(S(=O)(=O)NCC(NC(C)c2cccc3ccccc23)c2ccccc2)cc1 (stereo not drawn) [PHD 176 A],6 ± 1,
CC(NCC(Cc1ccccc1)NS(=O)(=O)c1ccccc1C(F)(F)F)c1cccc2ccccc12 (stereo not drawn) [PHD 306],48 ± 9,
COc1cccc([C@@H](C)NCC(NS(=O)(=O)c2ccc(C)cc2)c2ccccc2)c1 (stereo partly drawn) [PHD 178 B],22 ± 10,
"C[C@@H](NCC(Cc1ccccc1)NS(=O)(=O)c1ccc([N+](=O)[O-])cc1)c1ccccc1 (single isomer, unassigned) [PHD 127 B]",,Accumulation d'(^3H)-IP % de la réponse 10mM Ca^2+ ± E.S. (CaSR de rat; [1]): 13 ± 3%
CC(NS(=O)(=O)c1ccc2ccccc2c1)c1cccc2ccccc12 (stereo not drawn) [PHD 317],29 ± 13,
CC(NCC(Cc1ccccc1)NS(=O)(=O)c1cccc2ccccc12)c1cccc2ccccc12 (stereo not drawn) [PHD 319],31 ± 7,
COc1cccc([C@@H](C)NCC(Cc2ccccc2)NS(=O)(=O)c2ccc(C)cc2)c1 (stereo partly drawn) [PHD 182],36 ± 12,
CC(NCC(Cc1ccccc1)NS(=O)(=O)c1ccc(N)cc1)c1ccccc1 (stereo not drawn) [PHD 125],2 ± 4,
CC(NCC(Cc1ccccc1)NCc1cccc(Cl)c1)c1cccc2ccccc12 (stereo not drawn) [PHD 312],78 ± 6,Accumulation d'(^3H)-IP % du taux basal. CHO (CaSR) (CaSR de rat): une forte accumulation; activity at 10 µM (CaSR de rat): 383 ± 39%; Accumulation d'(^3H)-IP % du taux basal. CHO (WT*) (cellules CHO(WT*)): peu ou pas d'accumulation; activity at 10 µM (cellules CHO(WT*)): 121 ± 6%
CC(NCC(Cc1ccccc1)NCc1ccccc1F)c1cccc2ccccc12 (stereo not drawn) [PHD 323],90 ± 8,
CC(NCC(Cc1ccccc1)NS(C)(=O)=O)c1cccc2ccccc12 (stereo not drawn) [PHD 322],57 ± 6,
COc1cccc([C@@H](C)NC(CNS(=O)(=O)c2ccc(C)cc2)c2ccccc2)c1 (stereo partly drawn) [PHD 178 A],6 ± 6,

# Source: patent EP1235797B1, “ARALKYL-1,2-DIAMINES HAVING CALCIMIMETIC ACTIVITY AND PREPARATION MODE” (CENTRE NATIONAL DE LA RECHERCHE SCIENTIFIQUE (CNRS), priority 1999, dated 2001)
